ChEMBL document CHEMBL1201862, “PubChem BioAssay data set” (2004)
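Interpolation was linear, between the two tested concentrations surrounding the appropriate level; five concentrations were tested over 48 hours in 96-well plates. Abbreviation: GI50, concentration required for 50% inhibition of growth.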 Calls of active or inactive are those of the source. No stated cut-off is given here; in the data, active = GI50 up to about 1.1 µM and inactive = higher.

Experiments:
Experiment in all cases: DTP human tumour cell line panel, 48 h
LXFL 529 = test system: LXFL 529
COLO 205 = test system: COLO 205
SK-MEL-28 = test system: SK-MEL-28
HT-29 = test system: HT-29
NCI-H460 = test system: NCI-H460
RXF 631 = test system: RXF 631
A498 = test system: A498
NCI-H522 = test system: NCI-H522
UACC-257 = test system: UACC-257
OVCAR-8 = test system: OVCAR-8
DMS-114 = test system: DMS-114
HCC 2998 = test system: HCC 2998
OVCAR-5 = test system: OVCAR-5
SNB-75 = test system: SNB-75
A549 = test system: A549
UO-31 = test system: UO-31
SK-MEL-5 = test system: SK-MEL-5
UACC-62 = test system: UACC-62
DMS-273 = test system: DMS-273
HCT-15 = test system: HCT-15
ACHN = test system: ACHN
SW-620 = test system: SW-620
SNB-78 = test system: SNB-78
M14 = test system: M14
SF-268 = test system: SF-268
MOLT-4 = test system: MOLT-4
SN12C = test system: SN12C
RPMI-8226 = test system: RPMI-8226
RXF 393 = test system: RXF 393
LOX IMVI = test system: LOX IMVI
CCRF-CEM = test system: CCRF-CEM
K562 = test system: K562
U-251 = test system: U-251
OVCAR-4 = test system: OVCAR-4
SR = test system: SR
NCI-H226 = test system: NCI-H226
HCT-116 = test system: HCT-116
EKVX = test system: EKVX
M19-MEL = test system: M19-MEL
HOP-62 = test system: HOP-62
SF-539 = test system: SF-539
SF-295 = test system: SF-295
Malme-3M = test system: Malme-3M
NCI-H23 = test system: NCI-H23
HL-60 = test system: HL-60
OVCAR-3 = test system: OVCAR-3
IGROV-1 = test system: IGROV-1
SK-OV-3 = test system: SK-OV-3
TK-10 = test system: TK-10
SK-MEL-2 = test system: SK-MEL-2
SNB-19 = test system: SNB-19
786-0 = test system: 786-0
KM12 = test system: KM12
HOP-18 = test system: HOP-18
HOP-92 = test system: HOP-92
CAKI-1 = test system: CAKI-1
KM-20L2 = test system: KM-20L2
DLD-1 = test system: DLD-1
XF498 = test system: XF498

For `CCC(Oc1ccc(OC)c2ccccc(=O)c12)C(=O)O` (stereo not given), the GI50 (LXFL 529) was > 100 µM (inactive), the GI50 (COLO 205) was > 100 µM (inactive) and the GI50 (SK-MEL-28) was > 100 µM (inactive). The GI50 (HT-29) was > 100 µM (inactive), the GI50 (NCI-H460) was > 100 µM (inactive) and the GI50 (RXF 631) was > 100 µM (inactive). For the same compound, the GI50 (A498) was > 100 µM (inactive), the GI50 (NCI-H522) was > 100 µM (inactive) and the GI50 (UACC-257) was > 100 µM (inactive). The GI50 (OVCAR-8) was > 100 µM (inactive), the GI50 (DMS-114) was > 100 µM (inactive) and the GI50 (HCC 2998) was > 100 µM (inactive). For the same compound, the GI50 (OVCAR-5) was > 100 µM (inactive), the GI50 (SNB-75) was > 100 µM (inactive) and the GI50 (A549) was > 100 µM (inactive). For the same compound, the GI50 (UO-31) was > 100 µM (inactive), the GI50 (SK-MEL-5) was > 100 µM (inactive) and the GI50 (UACC-62) was > 100 µM (inactive). The GI50 (DMS-273) was > 100 µM (inactive), the GI50 (HCT-15) was over 100 µM and the GI50 (ACHN) was > 100 µM (inactive). The GI50 (SW-620) was > 100 µM (inactive), the GI50 (SNB-78) was > 100 µM (inactive) and the GI50 (M14) was > 100 µM (inactive). The GI50 (SF-268) was > 100 µM (inactive), the GI50 (MOLT-4) was > 100 µM (inactive) and the GI50 (SN12C) was > 100 µM (inactive). For the same compound, the GI50 (RPMI-8226) was > 100 µM (inactive), the GI50 (RXF 393) was > 100 µM (inactive) and the GI50 (LOX IMVI) was > 100 µM (inactive). For the same compound, the GI50 (CCRF-CEM) was > 100 µM (inactive), the GI50 (K562) was > 100 µM (inactive) and the GI50 (U-251) was > 100 µM (inactive). For the same compound, the GI50 (OVCAR-4) was > 100 µM (inactive), the GI50 (SR) was > 100 µM (inactive) and the GI50 (NCI-H226) was > 100 µM (inactive). The GI50 (HCT-116) was > 100 µM (inactive), the GI50 (EKVX) was > 100 µM (inactive) and the GI50 (M19-MEL) was > 100 µM (inactive). For the same compound, the GI50 (HOP-62) was > 100 µM (inactive), the GI50 (SF-539) was > 100 µM (inactive) and the GI50 (SF-295) was > 100 µM (inactive). For the same compound, the GI50 (Malme-3M) was > 100 µM (inactive), the GI50 (NCI-H23) was > 100 µM (inactive) and the GI50 (HL-60) was > 100 µM (inactive). For the same compound, the GI50 (OVCAR-3) was > 100 µM (inactive), the GI50 (IGROV-1) was > 100 µM (inactive) and the GI50 (SK-OV-3) was > 100 µM (inactive). The GI50 (TK-10) was > 100 µM (inactive), the GI50 (SK-MEL-2) was > 100 µM (inactive) and the GI50 (SNB-19) was > 100 µM (inactive). For the same compound, the GI50 (786-0) was > 100 µM (inactive) and the GI50 (KM12) was > 100 µM (inactive).
For `N#Cc1ccc(Oc2ccccc2)cc1C#N`, the GI50 (LXFL 529) was 42.6 µM (inactive), the GI50 (COLO 205) was 23.2 µM (inactive) and the GI50 (SK-MEL-28) was > 100 µM (inactive). The GI50 (HT-29) was 53.2 µM (inactive), the GI50 (NCI-H460) was 33.1 µM (inactive) and the GI50 (HOP-18) was > 100 µM (inactive). The GI50 (A498) was > 100 µM (inactive), the GI50 (NCI-H522) was 23.4 µM (inactive) and the GI50 (UACC-257) was > 100 µM (inactive). The GI50 (OVCAR-8) was > 100 µM (inactive), the GI50 (DMS-114) was 23.7 µM (inactive) and the GI50 (HCC 2998) was > 100 µM (inactive). For the same compound, the GI50 (OVCAR-5) was > 100 µM (inactive), the GI50 (SNB-75) was 72.3 µM (inactive) and the GI50 (A549) was > 100 µM (inactive). For the same compound, the GI50 (UO-31) was 92.3 µM (inactive), the GI50 (SK-MEL-5) was > 100 µM (inactive) and the GI50 (UACC-62) was > 100 µM (inactive). For the same compound, the GI50 (DMS-273) was 17.4 µM (inactive), the GI50 (HCT-15) was 19.1 µM and the GI50 (ACHN) was > 100 µM (inactive). For the same compound, the GI50 (SNB-78) was 54.6 µM (inactive), the GI50 (M14) was > 100 µM (inactive) and the GI50 (SF-268) was > 100 µM (inactive). For the same compound, the GI50 (MOLT-4) was 59.3 µM (inactive), the GI50 (SN12C) was 96.4 µM (inactive) and the GI50 (RPMI-8226) was 42.8 µM (inactive). For the same compound, the GI50 (RXF 393) was > 100 µM (inactive), the GI50 (LOX IMVI) was 20.7 µM (inactive) and the GI50 (CCRF-CEM) was 22.4 µM (inactive). The GI50 (K562) was 49.3 µM (inactive), the GI50 (U-251) was 44.3 µM (inactive) and the GI50 (OVCAR-4) was 96.2 µM (inactive). For the same compound, the GI50 (SR) was 20.4 µM (inactive), the GI50 (NCI-H226) was > 100 µM (inactive) and the GI50 (HOP-92) was > 100 µM (inactive). The GI50 (HCT-116) was 74.8 µM (inactive), the GI50 (EKVX) was > 100 µM (inactive) and the GI50 (CAKI-1) was 63.4 µM (inactive). The GI50 (M19-MEL) was 54.2 µM (inactive), the GI50 (HOP-62) was > 100 µM (inactive) and the GI50 (SF-539) was > 100 µM (inactive). For the same compound, the GI50 (SF-295) was > 100 µM (inactive), the GI50 (Malme-3M) was > 100 µM (inactive) and the GI50 (NCI-H23) was > 100 µM (inactive). The GI50 (HL-60) was 28.2 µM (inactive), the GI50 (OVCAR-3) was > 100 µM (inactive) and the GI50 (KM-20L2) was > 100 µM (inactive). The GI50 (DLD-1) was 65.2 µM (inactive), the GI50 (IGROV-1) was > 100 µM (inactive) and the GI50 (SK-OV-3) was > 100 µM (inactive). The GI50 (TK-10) was > 100 µM (inactive), the GI50 (SK-MEL-2) was 82.4 µM (inactive) and the GI50 (SNB-19) was > 100 µM (inactive). For the same compound, the GI50 (786-0) was > 100 µM (inactive), the GI50 (XF498) was > 100 µM (inactive) and the GI50 (KM12) was > 100 µM (inactive).
